Laboratory results from patent US11000033B2, “Ketone or oxime compound, and herbicide” (NISSAN CHEMICAL CORPORATION, priority 2014, dated 2021).

Key:
Type in all cases: in vivo
[1] = system: Echinochloa oryzacola Vasing.; experiment: Test Example 1: herbicidal activity, application before weed generation in submerged conditions (symbol A); conditions: application herbicide amount 320 g/ha
In short: (§1)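 Paddy pre-emergence test. Formulated emulsion, water-diluted to a predetermined rate, is applied to floodwater on sowing day; rice transplanted at 2.5 leaves. Effect read at 3 weeks on a 0–5 herbicidal-ratio scale.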

Scirpus juncoides [2] = experiment: Test Example 1: herbicidal activity, application before weed generation in submerged conditions (symbol B); conditions: application herbicide amount 320 g/ha
In short: as §1

transplanted rice plant = experiment: Test Example 1: effect on crop, application before weed generation in submerged conditions (symbol a); conditions: application herbicide amount 320 g/ha
In short: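 Alluvial soil pots flooded to 4 cm water, sown with Echinochloa oryzacola, Scirpus juncoides and Monochoria vaginalis, then transplanted with 2.5 leaf stage rice seedlings; pre-emergence application. Greenhouse 25° C. to 30° C.; scored 0–5 by herbicidal ratio 3 weeks after application.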

[3] = system: Echinochloa oryzacola Vasing.; experiment: Test Example 2: herbicidal activity, application during weed generation in submerged conditions (symbol A); conditions: Table 23; application herbicide amount 320 g/ha; grade 0-5 by criteria of Test Example 1
In short: (§2)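 Visual herbicidal ratings, taken three weeks after dosing, reflect post-emergence water-surface application to seedlings at one to two leaves. Conditions: co-sown weeds in alluvial soil flooded to 4 cm, greenhouse held at 25° C. to 30° C.; compound given as water-diluted emulsion at a fixed herbicide amount.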

Scirpus juncoides [4] = experiment: Test Example 2: herbicidal activity, application during weed generation in submerged conditions (symbol B); conditions: Table 23; application herbicide amount 320 g/ha; grade 0-5 by criteria of Test Example 1
In short: as §2

Cyperus difformis = experiment: Test Example 3: herbicidal effect by foliage application, Wagner pot (symbol E); conditions: application herbicide amount 320 g/ha
In short: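 Herbicidal activity was rated three weeks after a foliar spray of diluted emulsion concentrate, applied at a predetermined dose to plants grown for 14 days from seed in waterlogged alluvial soil within a 25–30 °C greenhouse.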

Setaria viridis = experiment: Test Example 4: herbicidal effect by soil treatment (symbol G); conditions: 320 g/ha
In short: (§3)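 Seeds were sown in sterilized diluvial soil, covered with about 1.5 cm of soil, and the soil surface was sprayed with a water-diluted emulsion of the compound at a predetermined rate. Plants grew in a greenhouse at 25° C. to 30° C.; effects were scored visually 3 weeks after application.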

Apera spica-venti = experiment: Test Example 4: herbicidal effect by soil treatment (symbol L); conditions: 320 g/ha
In short: as §3

Amaranthus retroflexus [5] = experiment: Test Example 4: herbicidal effect by soil treatment (symbol N); conditions: 320 g/ha
In short: as §3

wheat = experiment: Test Example 4: effect on crop by soil treatment (symbol e); conditions: 320 g/ha
In short: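 The test used sterilized diluvial soil. Seed was set down in spots and overlaid with about 1.5 cm of soil before growth in a greenhouse kept at 25° C. to 30° C.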

[6] = system: Echinochloa crus-galli var. crus-galli; experiment: Test Example 5: herbicidal effect by foliage application, plastic box (symbol H); conditions: 320 g/ha, 3 weeks after application
In short: (§4)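 Seeds were sown in sterilized diluvial soil, covered with about 1.5 cm of soil and grown 14 days in a greenhouse at 25° C. to 30° C. An emulsifiable formulation diluted in water to a set rate was sprayed over foliage, and injury was scored 3 weeks later.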

Alopecurus myosuroides = experiment: Test Example 5: herbicidal effect by foliage application, plastic box (symbol J); conditions: 320 g/ha, 3 weeks after application
In short: as §4

Amaranthus retroflexus [7] = experiment: Test Example 5: herbicidal effect by foliage application, plastic box (symbol N); conditions: 320 g/ha, 3 weeks after application
In short: as §4

SMILES | Herbicidal effect grade, A: Echinochloa oryzacola Vasing. [1] | Herbicidal effect grade, B: Scirpus juncoides (Scirpus juncoides [2]) | Effect grade on crop, a: transplanted rice plant (transplanted rice plant) | Herbicidal effect grade, A: Echinochloa oryzacola Vasing. [3] | Herbicidal effect grade, B: Scirpus juncoides (Scirpus juncoides [4]) | herbicidal effect on E, grade 0-5 (Cyperus difformis) | G: Setaria viridis, herbicidal effect grade (Setaria viridis) | L: Apera spica-venti, herbicidal effect grade (Apera spica-venti) | N: Amaranthus retroflexus, herbicidal effect grade (Amaranthus retroflexus [5]) | e: wheat, effect grade on crop (wheat) | H: Echinochloa crus-galli var. crus-galli, herbicidal effect (criteria 0-5) [6] | J: Alopecurus myosuroides, herbicidal effect (criteria 0-5) (Alopecurus myosuroides) | N: Amaranthus retroflexus, herbicidal effect (criteria 0-5) (Amaranthus retroflexus [7])
CON=C(C)CON=C(C)CC1CC(O)=C(c2c(C)cc(C)cc2C)C1=O (stereo not drawn) [1-105] | 5 (Herbicidal ratio of 90% or more (almost completely withered)) | 5 (Herbicidal ratio of 90% or more (almost completely withered)) | 5 (Herbicidal ratio of 90% or more (almost completely withered)) | 5 (Herbicidal ratio of 90% or more (almost completely withered)) | 5 (Herbicidal ratio of 90% or more (almost completely withered)) | 5 (Herbicidal ratio of 90% or more (almost completely withered)) | 5 (Herbicidal ratio of 90% or more (almost completely withered)) | 5 (Herbicidal ratio of 90% or more (almost completely withered)) | 4 (Herbicidal ratio of 70% or higher and lower than 90%) | 3 (Herbicidal ratio of 40% or higher and lower than 70%) | 5 (Herbicidal ratio of 90% or more (almost completely withered)) | 5 (Herbicidal ratio of 90% or more (almost completely withered)) | 0 (Herbicidal ratio of 5% or lower (almost no effect))
CC(CC1CC(O)=C(c2c(C)cc(C)cc2C)C1=O)=NOC1CCCC1 (stereo not drawn) [1-106] | 5 (Herbicidal ratio of 90% or more (almost completely withered)) | 3 (Herbicidal ratio of 40% or higher and lower than 70%) | 5 (Herbicidal ratio of 90% or more (almost completely withered)) | 5 (Herbicidal ratio of 90% or more (almost completely withered)) | 0 (Herbicidal ratio of 5% or lower (almost no effect)) | 5 (Herbicidal ratio of 90% or more (almost completely withered)) | 5 (Herbicidal ratio of 90% or more (almost completely withered)) | 5 (Herbicidal ratio of 90% or more (almost completely withered)) | 0 (Herbicidal ratio of 5% or lower (almost no effect)) | 3 (Herbicidal ratio of 40% or higher and lower than 70%) | 5 (Herbicidal ratio of 90% or more (almost completely withered)) | 5 (Herbicidal ratio of 90% or more (almost completely withered)) | 5 (Herbicidal ratio of 90% or more (almost completely withered))
CCCCCCCCS(=O)(=O)OC1=C(c2c(C)cc(C)cc2C)C(=O)C(CC(C)=NOC)C1 (stereo not drawn) [1-107] | 5 (Herbicidal ratio of 90% or more (almost completely withered)) | 4 (Herbicidal ratio of 70% or higher and lower than 90%) | 3 (Herbicidal ratio of 40% or higher and lower than 70%) | 5 (Herbicidal ratio of 90% or more (almost completely withered)) | 2 (Herbicidal ratio of 20% or higher and lower than 40%) | 5 (Herbicidal ratio of 90% or more (almost completely withered)) | 3 (Herbicidal ratio of 40% or higher and lower than 70%) | 5 (Herbicidal ratio of 90% or more (almost completely withered)) | 0 (Herbicidal ratio of 5% or lower (almost no effect)) | 0 (Herbicidal ratio of 5% or lower (almost no effect)) | 5 (Herbicidal ratio of 90% or more (almost completely withered)) | 5 (Herbicidal ratio of 90% or more (almost completely withered)) | 0 (Herbicidal ratio of 5% or lower (almost no effect))
CON=C(C)CC1CC(OC(=O)N(C)C)=C(c2c(C)cc(C)cc2C)C1=O (stereo not drawn) [1-108] | 5 (Herbicidal ratio of 90% or more (almost completely withered)) | 4 (Herbicidal ratio of 70% or higher and lower than 90%) | 5 (Herbicidal ratio of 90% or more (almost completely withered)) | 5 (Herbicidal ratio of 90% or more (almost completely withered)) | 3 (Herbicidal ratio of 40% or higher and lower than 70%) | 5 (Herbicidal ratio of 90% or more (almost completely withered)) | 5 (Herbicidal ratio of 90% or more (almost completely withered)) | 5 (Herbicidal ratio of 90% or more (almost completely withered)) | 0 (Herbicidal ratio of 5% or lower (almost no effect)) | 4 (Herbicidal ratio of 70% or higher and lower than 90%) | 5 (Herbicidal ratio of 90% or more (almost completely withered)) | 5 (Herbicidal ratio of 90% or more (almost completely withered)) | 5 (Herbicidal ratio of 90% or more (almost completely withered))
CC(CC1CC(O)=C(c2c(C)cc(C)cc2C)C1=O)=NOCC1CC1(F)F (stereo not drawn) [1-109] | 5 (Herbicidal ratio of 90% or more (almost completely withered)) | 5 (Herbicidal ratio of 90% or more (almost completely withered)) | 5 (Herbicidal ratio of 90% or more (almost completely withered)) | 5 (Herbicidal ratio of 90% or more (almost completely withered)) | 5 (Herbicidal ratio of 90% or more (almost completely withered)) | 5 (Herbicidal ratio of 90% or more (almost completely withered)) | 5 (Herbicidal ratio of 90% or more (almost completely withered)) | 5 (Herbicidal ratio of 90% or more (almost completely withered)) | 3 (Herbicidal ratio of 40% or higher and lower than 70%) | 2 (Herbicidal ratio of 20% or higher and lower than 40%) | 5 (Herbicidal ratio of 90% or more (almost completely withered)) | 5 (Herbicidal ratio of 90% or more (almost completely withered)) | 0 (Herbicidal ratio of 5% or lower (almost no effect))
CC(CC1CC(O)=C(c2c(C)cc(C)cc2C)C1=O)=NOCCS(C)(=O)=O (stereo not drawn) [1-110] | 3 (Herbicidal ratio of 40% or higher and lower than 70%) | 0 (Herbicidal ratio of 5% or lower (almost no effect)) | 5 (Herbicidal ratio of 90% or more (almost completely withered)) | 2 (Herbicidal ratio of 20% or higher and lower than 40%) | 0 (Herbicidal ratio of 5% or lower (almost no effect)) | 5 (Herbicidal ratio of 90% or more (almost completely withered)) | 5 (Herbicidal ratio of 90% or more (almost completely withered)) | 5 (Herbicidal ratio of 90% or more (almost completely withered)) | 0 (Herbicidal ratio of 5% or lower (almost no effect)) | 5 (Herbicidal ratio of 90% or more (almost completely withered)) | 5 (Herbicidal ratio of 90% or more (almost completely withered)) | 5 (Herbicidal ratio of 90% or more (almost completely withered)) | 0 (Herbicidal ratio of 5% or lower (almost no effect))
